Reference: ChEMBL document CHEMBL1201862, “PubChem BioAssay data set” (2004)
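Results reflect a 48-hour exposure of cells in 96-well plates to compound at five concentrations. GI50 is the concentration that inhibits growth by half.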 Calls of active or inactive are those of the source. Cut-off read from the data, not from the text of the source: active = GI50 up to about 1.1 µM and inactive = higher.

Key:
Test in all cases: NCI anticancer screen, dose series, 48 h
A498 = tested on: A498
CAKI-1 = tested on: CAKI-1
EKVX = tested on: EKVX
HCT-116 = tested on: HCT-116
HCT-15 = tested on: HCT-15
HOP-62 = tested on: HOP-62
KM12 = tested on: KM12
LOX IMVI = tested on: LOX IMVI
MOLT-4 = tested on: MOLT-4
NCI-H460 = tested on: NCI-H460
OVCAR-8 = tested on: OVCAR-8
RPMI-8226 = tested on: RPMI-8226
SF-539 = tested on: SF-539
SK-MEL-28 = tested on: SK-MEL-28
SNB-19 = tested on: SNB-19
SNB-75 = tested on: SNB-75
SR = tested on: SR
TK-10 = tested on: TK-10
RXF 393 = tested on: RXF 393

| Structure (SMILES) | GI50 (A498) | GI50 (CAKI-1) | GI50 (EKVX) | GI50 (HCT-116) | GI50 (HCT-15) [µM] | GI50 (HOP-62) | GI50 (KM12) | GI50 (LOX IMVI) | GI50 (MOLT-4) | GI50 (NCI-H460) | GI50 (OVCAR-8) | GI50 (RPMI-8226) | GI50 (SF-539) | GI50 (SK-MEL-28) | GI50 (SNB-19) | GI50 (SNB-75) | GI50 (SR) | GI50 (TK-10) | GI50 (RXF 393) |
| --- | --- | --- | --- | --- | --- | --- | --- | --- | --- | --- | --- | --- | --- | --- | --- | --- | --- | --- | --- |
| c1ccc(CN2CCCCC(Sc3ccccc3)CC2)cc1 (configuration not stated) | > 100 µM (inactive) | 26.9 µM (inactive) | 35.2 µM (inactive) | 27.2 µM (inactive) | 17.6 | 64.4 µM (inactive) | > 100 µM (inactive) | 16.5 µM (inactive) | 20.8 µM (inactive) | 20.2 µM (inactive) | 27.8 µM (inactive) | 17.8 µM (inactive) | 29.8 µM (inactive) | 45.3 µM (inactive) | 34 µM (inactive) | 30.5 µM (inactive) | 17.8 µM (inactive) | 58.7 µM (inactive) | – |
| CC(C)(C)OC(=O)NC(CCCCNC(=O)OCc1ccccc1)C(=O)NC(CCCCNC(=O)OCc1ccccc1)C(=O)ON1C(=O)CCC1=O (configuration not stated) | – | – | > 100 µM (inactive) | > 100 µM (inactive) | > 100 | > 100 µM (inactive) | > 100 µM (inactive) | – | > 100 µM (inactive) | – | > 100 µM (inactive) | > 100 µM (inactive) | – | > 100 µM (inactive) | > 100 µM (inactive) | > 100 µM (inactive) | > 100 µM (inactive) | > 100 µM (inactive) | > 100 µM (inactive) |
| NC(=O)N/N=C(/c1nc2ccc([N+](=O)[O-])cc2nc1O)C(O)c1ccco1 (configuration not stated) | – | 61.7 µM (inactive) | – | > 100 µM (inactive) | 12 | 35.3 µM (inactive) | – | 21.6 µM (inactive) | 94.6 µM (inactive) | 59.6 µM (inactive) | > 100 µM (inactive) | 43 µM (inactive) | 15.8 µM (inactive) | 96.6 µM (inactive) | > 100 µM (inactive) | 97.9 µM (inactive) | 57.1 µM (inactive) | > 100 µM (inactive) | > 100 µM (inactive) |
| CC(O)c1ccc[n+](Cc2ccccc2)c1 (configuration not stated) | – | > 400 µM (inactive) | > 400 µM (inactive) | > 400 µM (inactive) | > 400 | > 400 µM (inactive) | > 400 µM (inactive) | > 400 µM (inactive) | > 400 µM (inactive) | > 400 µM (inactive) | > 400 µM (inactive) | > 400 µM (inactive) | > 400 µM (inactive) | > 400 µM (inactive) | > 400 µM (inactive) | – | > 400 µM (inactive) | > 400 µM (inactive) | > 400 µM (inactive) |
| C=CC/N=C1\NC(=O)C(CC(=O)Nc2ccc(C)cc2)S1 (configuration not stated) | > 100 µM (inactive) | > 100 µM (inactive) | > 100 µM (inactive) | – | > 100 | > 100 µM (inactive) | > 100 µM (inactive) | > 100 µM (inactive) | > 100 µM (inactive) | > 100 µM (inactive) | > 100 µM (inactive) | > 100 µM (inactive) | > 100 µM (inactive) | > 100 µM (inactive) | > 100 µM (inactive) | > 100 µM (inactive) | – | > 100 µM (inactive) | > 100 µM (inactive) |
| CC(=O)O[C@H]1CCC2[C@@H]3CCC4c5nonc5CC[C@]4(C)C3CC[C@@]21C (some centres not stated) | > 10 µM (inactive) | > 10 µM (inactive) | > 10 µM (inactive) | > 10 µM (inactive) | > 10 | > 10 µM (inactive) | > 10 µM (inactive) | > 10 µM (inactive) | > 10 µM (inactive) | > 10 µM (inactive) | > 10 µM (inactive) | – | > 10 µM (inactive) | > 10 µM (inactive) | > 10 µM (inactive) | 51.3 µM (inactive) | – | > 10 µM (inactive) | > 10 µM (inactive) |
| O=c1[nH][nH]c(=O)[nH]1 | – | > 100 µM (inactive) | > 100 µM (inactive) | > 100 µM (inactive) | > 100 | > 100 µM (inactive) | > 100 µM (inactive) | > 100 µM (inactive) | > 100 µM (inactive) | > 100 µM (inactive) | – | > 100 µM (inactive) | > 100 µM (inactive) | > 100 µM (inactive) | > 100 µM (inactive) | > 100 µM (inactive) | > 100 µM (inactive) | > 100 µM (inactive) | > 100 µM (inactive) |
| CCN1CCC(O)(c2ccc(Cl)c(Cl)c2)C(C(=O)c2ccc(Cl)c(Cl)c2)C1 (configuration not stated) | 21.5 µM (inactive) | 18.3 µM (inactive) | 18.5 µM (inactive) | 18.5 µM (inactive) | 18.8 | 18.3 µM (inactive) | – | 17.8 µM (inactive) | 15.1 µM (inactive) | 21.3 µM (inactive) | 19.8 µM (inactive) | 1.65 µM (inactive) | 17.7 µM (inactive) | 18.2 µM (inactive) | 19.7 µM (inactive) | 14.3 µM (inactive) | – | 16.5 µM (inactive) | – |
| COC(=O)c1cc2cc(OC)c(OC)cc2cc(C(=O)OC)c1=O | > 100 µM (inactive) | > 100 µM (inactive) | > 100 µM (inactive) | > 100 µM (inactive) | > 100 | > 100 µM (inactive) | > 100 µM (inactive) | 87.3 µM (inactive) | > 100 µM (inactive) | > 100 µM (inactive) | > 100 µM (inactive) | > 100 µM (inactive) | > 100 µM (inactive) | – | > 100 µM (inactive) | > 100 µM (inactive) | – | > 100 µM (inactive) | > 100 µM (inactive) |
| COC1C(OC(=O)c2ccc(C)[nH]2)C(O)C(Oc2ccc3c(O)c(NC(=O)c4c[nH]c(C(=O)Nc5c(O)c6ccc(OC7OC(C)(C)C(OC)C(OC(=O)c8ccc(C)[nH]8)C7O)c(C)c6oc5=O)c4C)c(=O)oc3c2C)OC1(C)C (configuration not stated) | 1.76 µM (inactive) | 2.75 µM (inactive) | 3.82 µM (inactive) | – | 1.88 | – | 1.32 µM (inactive) | 2.77 µM (inactive) | 0.857 µM (active) | 1.88 µM (inactive) | 2.81 µM (inactive) | 1.53 µM (inactive) | – | 0.475 µM (active) | 0.693 µM (active) | 0.708 µM (active) | – | 4.86 µM (inactive) | 0.794 µM (active) |
| CC(=O)Nc1ccc(C(=O)NN2C(=O)C(Cl)C2c2ccccc2O)cc1 (configuration not stated) | > 100 µM (inactive) | > 100 µM (inactive) | 99.8 µM (inactive) | > 100 µM (inactive) | 3.36 | 14.2 µM (inactive) | – | 13.2 µM (inactive) | – | 6.81 µM (inactive) | 42.2 µM (inactive) | – | 42.1 µM (inactive) | > 100 µM (inactive) | 36.6 µM (inactive) | 36.8 µM (inactive) | – | 51.4 µM (inactive) | 24.1 µM (inactive) |
| CCOC(=O)/C(=C/c1cccc(C#N)c1)N(CC)CC | > 100 µM (inactive) | > 100 µM (inactive) | > 100 µM (inactive) | > 100 µM (inactive) | > 100 | > 100 µM (inactive) | > 100 µM (inactive) | > 100 µM (inactive) | > 100 µM (inactive) | > 100 µM (inactive) | > 100 µM (inactive) | > 100 µM (inactive) | > 100 µM (inactive) | > 100 µM (inactive) | – | > 100 µM (inactive) | > 100 µM (inactive) | > 100 µM (inactive) | – |
| N#CC(C(=O)/C(=N/N)C(C#N)c1ccccc1)c1ccccc1 (configuration not stated) | – | > 100 µM (inactive) | > 100 µM (inactive) | > 100 µM (inactive) | > 100 | > 100 µM (inactive) | > 100 µM (inactive) | > 100 µM (inactive) | > 100 µM (inactive) | > 100 µM (inactive) | > 100 µM (inactive) | > 100 µM (inactive) | > 100 µM (inactive) | > 100 µM (inactive) | > 100 µM (inactive) | – | – | > 100 µM (inactive) | > 100 µM (inactive) |
| CC12CCC(=O)N1c1cccnc1N2 (configuration not stated) | > 100 µM (inactive) | > 100 µM (inactive) | > 100 µM (inactive) | – | > 100 | > 100 µM (inactive) | > 100 µM (inactive) | > 100 µM (inactive) | > 100 µM (inactive) | > 100 µM (inactive) | > 100 µM (inactive) | > 100 µM (inactive) | > 100 µM (inactive) | > 100 µM (inactive) | – | > 100 µM (inactive) | – | > 100 µM (inactive) | > 100 µM (inactive) |
| COc1ccc(/C(C)=N/NC(=O)c2ccncc2)c(OC)c1 | > 10 µM (inactive) | > 10 µM (inactive) | > 10 µM (inactive) | – | > 10 | > 10 µM (inactive) | > 10 µM (inactive) | > 10 µM (inactive) | > 10 µM (inactive) | > 10 µM (inactive) | > 10 µM (inactive) | > 10 µM (inactive) | > 10 µM (inactive) | > 10 µM (inactive) | – | > 10 µM (inactive) | > 10 µM (inactive) | > 10 µM (inactive) | – |
| CCc1ccc(Nc2ccc([N+](=O)[O-])cc2[N+](=O)[O-])cc1 | 23.7 µM (inactive) | 39.1 µM (inactive) | 75.9 µM (inactive) | 36.7 µM (inactive) | 96.4 | > 100 µM (inactive) | 52.5 µM (inactive) | – | 19.1 µM (inactive) | 69.2 µM (inactive) | 97.7 µM (inactive) | 39.1 µM (inactive) | > 100 µM (inactive) | > 100 µM (inactive) | – | 39.7 µM (inactive) | – | 73.8 µM (inactive) | 71.4 µM (inactive) |
| C[C@]12CC(C#N)C(=O)C(O)=C1CC[C@@H]1C2CC[C@@]2(C)C1CC[C@@H]2O (some centres not stated) | 3.86 µM (inactive) | – | 34.8 µM (inactive) | 41.1 µM (inactive) | 48.6 | 80.4 µM (inactive) | > 100 µM (inactive) | 27.4 µM (inactive) | 40.7 µM (inactive) | 41.8 µM (inactive) | > 100 µM (inactive) | 7 µM (inactive) | 46.1 µM (inactive) | 40.9 µM (inactive) | 83.4 µM (inactive) | 9.91 µM (inactive) | – | 27.1 µM (inactive) | 19.1 µM (inactive) |
